From article PMC8213057, “Targeting ALK2: An Open Science Approach to Developing Therapeutics for the Treatment of Diffuse Intrinsic Pontine Glioma” (Journal of Medicinal Chemistry, 2020) come the findings set out here.

“And” between values parts separate entries of the source, which are not always exact repeats. Identical values can stand only once.

The target in one assay is LRRK2 (Homo sapiens, UniProt Q5S007). As to conditions: 1 μM; Run 1, Run 2.
In a further assay the target is T1, MKK4 (Homo sapiens, UniProt P45985).
T1 sequence (P45985 1-399): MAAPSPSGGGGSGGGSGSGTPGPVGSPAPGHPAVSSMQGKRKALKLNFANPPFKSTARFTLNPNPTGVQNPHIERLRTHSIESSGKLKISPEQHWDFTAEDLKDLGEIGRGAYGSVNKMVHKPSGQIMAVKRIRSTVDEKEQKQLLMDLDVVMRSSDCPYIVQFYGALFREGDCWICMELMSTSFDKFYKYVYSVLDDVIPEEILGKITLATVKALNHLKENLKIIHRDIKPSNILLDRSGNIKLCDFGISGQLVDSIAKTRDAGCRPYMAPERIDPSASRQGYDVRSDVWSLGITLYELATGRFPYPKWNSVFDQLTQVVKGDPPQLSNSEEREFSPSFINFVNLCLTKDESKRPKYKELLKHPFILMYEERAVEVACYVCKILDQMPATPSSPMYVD
Conditions: 1 μM; Run 1, Run 2.

The target in another assay is RSK2 (Homo sapiens, UniProt P51812). As to conditions: 1 μM; Run 1, Run 2.
For the next assay, the target named is TLK2 (Homo sapiens, UniProt Q86UE8). As to conditions: 1 μM; Run 1, Run 2.
The next assay has as its target T2, CHK1 (Homo sapiens, UniProt O14757).
T2 sequence (O14757 1-476): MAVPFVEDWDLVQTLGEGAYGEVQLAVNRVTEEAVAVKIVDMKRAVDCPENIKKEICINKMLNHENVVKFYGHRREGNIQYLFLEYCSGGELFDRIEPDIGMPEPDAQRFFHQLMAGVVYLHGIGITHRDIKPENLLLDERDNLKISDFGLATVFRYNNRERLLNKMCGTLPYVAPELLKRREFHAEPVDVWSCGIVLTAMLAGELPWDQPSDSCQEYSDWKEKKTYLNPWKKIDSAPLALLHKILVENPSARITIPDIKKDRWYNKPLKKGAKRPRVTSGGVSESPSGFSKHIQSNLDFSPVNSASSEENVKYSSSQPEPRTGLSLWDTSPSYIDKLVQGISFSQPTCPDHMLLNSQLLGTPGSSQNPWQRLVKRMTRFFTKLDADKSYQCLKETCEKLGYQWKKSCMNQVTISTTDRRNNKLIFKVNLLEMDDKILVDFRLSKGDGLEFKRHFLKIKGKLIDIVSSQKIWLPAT
As to the kind of experiment: biochemical. Conditions: read-out: % enzyme activity, 1 μM; Run 1, Run 2.

Another assay addresses JNK2 (Homo sapiens, UniProt P45984). In words: biochemical. As to conditions: read-out: % enzyme activity, 1 μM; Run 1, Run 2.
The target of the next assay is T3, NEK5 (Homo sapiens, UniProt Q6P3R8).
T3 sequence (Q6P3R8 1-708): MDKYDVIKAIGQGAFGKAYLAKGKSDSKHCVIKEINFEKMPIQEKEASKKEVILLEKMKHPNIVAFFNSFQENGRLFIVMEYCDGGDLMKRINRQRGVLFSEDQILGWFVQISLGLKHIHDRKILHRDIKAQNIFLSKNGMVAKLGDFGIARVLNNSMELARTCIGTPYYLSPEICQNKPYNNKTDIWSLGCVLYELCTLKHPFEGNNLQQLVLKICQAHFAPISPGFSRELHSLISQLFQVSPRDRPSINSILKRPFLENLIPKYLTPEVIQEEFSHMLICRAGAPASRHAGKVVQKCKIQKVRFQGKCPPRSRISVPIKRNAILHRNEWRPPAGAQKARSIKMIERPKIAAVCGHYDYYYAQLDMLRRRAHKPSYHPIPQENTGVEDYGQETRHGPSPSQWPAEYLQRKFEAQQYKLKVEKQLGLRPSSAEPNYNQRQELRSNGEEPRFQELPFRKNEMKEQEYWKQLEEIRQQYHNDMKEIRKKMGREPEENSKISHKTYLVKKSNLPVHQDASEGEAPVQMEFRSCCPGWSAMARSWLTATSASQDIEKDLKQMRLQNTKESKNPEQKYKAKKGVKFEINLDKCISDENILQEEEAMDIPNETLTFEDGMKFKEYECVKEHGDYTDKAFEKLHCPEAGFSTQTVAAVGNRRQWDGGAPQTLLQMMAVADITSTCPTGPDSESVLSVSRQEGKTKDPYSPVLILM
As to the kind of experiment: biochemical. Conditions: read-out: % enzyme activity, 1 μM; Run 1, Run 2.

A further assay concerns the target T4, PKCiota (Homo sapiens, UniProt P41743).
T4 sequence (P41743 1-596): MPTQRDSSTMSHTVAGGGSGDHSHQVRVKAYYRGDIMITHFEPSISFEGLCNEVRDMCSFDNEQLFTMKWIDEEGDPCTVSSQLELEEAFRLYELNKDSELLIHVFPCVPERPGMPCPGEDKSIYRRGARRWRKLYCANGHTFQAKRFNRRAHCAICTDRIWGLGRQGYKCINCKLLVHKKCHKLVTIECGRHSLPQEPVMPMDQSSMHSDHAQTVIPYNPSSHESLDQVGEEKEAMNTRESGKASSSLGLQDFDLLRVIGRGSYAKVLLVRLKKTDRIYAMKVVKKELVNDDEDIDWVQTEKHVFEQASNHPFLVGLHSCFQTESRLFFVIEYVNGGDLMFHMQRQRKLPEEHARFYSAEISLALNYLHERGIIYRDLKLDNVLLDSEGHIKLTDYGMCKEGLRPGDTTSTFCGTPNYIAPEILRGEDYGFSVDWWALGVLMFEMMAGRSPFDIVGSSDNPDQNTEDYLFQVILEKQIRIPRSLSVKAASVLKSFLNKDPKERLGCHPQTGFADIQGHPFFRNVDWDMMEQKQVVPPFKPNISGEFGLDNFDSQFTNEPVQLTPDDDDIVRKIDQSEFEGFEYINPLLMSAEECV
In words: biochemical. As to conditions: read-out: % enzyme activity, 1 μM; Run 1, Run 2.

Chain of LRRK2 (Q5S007 whole entry): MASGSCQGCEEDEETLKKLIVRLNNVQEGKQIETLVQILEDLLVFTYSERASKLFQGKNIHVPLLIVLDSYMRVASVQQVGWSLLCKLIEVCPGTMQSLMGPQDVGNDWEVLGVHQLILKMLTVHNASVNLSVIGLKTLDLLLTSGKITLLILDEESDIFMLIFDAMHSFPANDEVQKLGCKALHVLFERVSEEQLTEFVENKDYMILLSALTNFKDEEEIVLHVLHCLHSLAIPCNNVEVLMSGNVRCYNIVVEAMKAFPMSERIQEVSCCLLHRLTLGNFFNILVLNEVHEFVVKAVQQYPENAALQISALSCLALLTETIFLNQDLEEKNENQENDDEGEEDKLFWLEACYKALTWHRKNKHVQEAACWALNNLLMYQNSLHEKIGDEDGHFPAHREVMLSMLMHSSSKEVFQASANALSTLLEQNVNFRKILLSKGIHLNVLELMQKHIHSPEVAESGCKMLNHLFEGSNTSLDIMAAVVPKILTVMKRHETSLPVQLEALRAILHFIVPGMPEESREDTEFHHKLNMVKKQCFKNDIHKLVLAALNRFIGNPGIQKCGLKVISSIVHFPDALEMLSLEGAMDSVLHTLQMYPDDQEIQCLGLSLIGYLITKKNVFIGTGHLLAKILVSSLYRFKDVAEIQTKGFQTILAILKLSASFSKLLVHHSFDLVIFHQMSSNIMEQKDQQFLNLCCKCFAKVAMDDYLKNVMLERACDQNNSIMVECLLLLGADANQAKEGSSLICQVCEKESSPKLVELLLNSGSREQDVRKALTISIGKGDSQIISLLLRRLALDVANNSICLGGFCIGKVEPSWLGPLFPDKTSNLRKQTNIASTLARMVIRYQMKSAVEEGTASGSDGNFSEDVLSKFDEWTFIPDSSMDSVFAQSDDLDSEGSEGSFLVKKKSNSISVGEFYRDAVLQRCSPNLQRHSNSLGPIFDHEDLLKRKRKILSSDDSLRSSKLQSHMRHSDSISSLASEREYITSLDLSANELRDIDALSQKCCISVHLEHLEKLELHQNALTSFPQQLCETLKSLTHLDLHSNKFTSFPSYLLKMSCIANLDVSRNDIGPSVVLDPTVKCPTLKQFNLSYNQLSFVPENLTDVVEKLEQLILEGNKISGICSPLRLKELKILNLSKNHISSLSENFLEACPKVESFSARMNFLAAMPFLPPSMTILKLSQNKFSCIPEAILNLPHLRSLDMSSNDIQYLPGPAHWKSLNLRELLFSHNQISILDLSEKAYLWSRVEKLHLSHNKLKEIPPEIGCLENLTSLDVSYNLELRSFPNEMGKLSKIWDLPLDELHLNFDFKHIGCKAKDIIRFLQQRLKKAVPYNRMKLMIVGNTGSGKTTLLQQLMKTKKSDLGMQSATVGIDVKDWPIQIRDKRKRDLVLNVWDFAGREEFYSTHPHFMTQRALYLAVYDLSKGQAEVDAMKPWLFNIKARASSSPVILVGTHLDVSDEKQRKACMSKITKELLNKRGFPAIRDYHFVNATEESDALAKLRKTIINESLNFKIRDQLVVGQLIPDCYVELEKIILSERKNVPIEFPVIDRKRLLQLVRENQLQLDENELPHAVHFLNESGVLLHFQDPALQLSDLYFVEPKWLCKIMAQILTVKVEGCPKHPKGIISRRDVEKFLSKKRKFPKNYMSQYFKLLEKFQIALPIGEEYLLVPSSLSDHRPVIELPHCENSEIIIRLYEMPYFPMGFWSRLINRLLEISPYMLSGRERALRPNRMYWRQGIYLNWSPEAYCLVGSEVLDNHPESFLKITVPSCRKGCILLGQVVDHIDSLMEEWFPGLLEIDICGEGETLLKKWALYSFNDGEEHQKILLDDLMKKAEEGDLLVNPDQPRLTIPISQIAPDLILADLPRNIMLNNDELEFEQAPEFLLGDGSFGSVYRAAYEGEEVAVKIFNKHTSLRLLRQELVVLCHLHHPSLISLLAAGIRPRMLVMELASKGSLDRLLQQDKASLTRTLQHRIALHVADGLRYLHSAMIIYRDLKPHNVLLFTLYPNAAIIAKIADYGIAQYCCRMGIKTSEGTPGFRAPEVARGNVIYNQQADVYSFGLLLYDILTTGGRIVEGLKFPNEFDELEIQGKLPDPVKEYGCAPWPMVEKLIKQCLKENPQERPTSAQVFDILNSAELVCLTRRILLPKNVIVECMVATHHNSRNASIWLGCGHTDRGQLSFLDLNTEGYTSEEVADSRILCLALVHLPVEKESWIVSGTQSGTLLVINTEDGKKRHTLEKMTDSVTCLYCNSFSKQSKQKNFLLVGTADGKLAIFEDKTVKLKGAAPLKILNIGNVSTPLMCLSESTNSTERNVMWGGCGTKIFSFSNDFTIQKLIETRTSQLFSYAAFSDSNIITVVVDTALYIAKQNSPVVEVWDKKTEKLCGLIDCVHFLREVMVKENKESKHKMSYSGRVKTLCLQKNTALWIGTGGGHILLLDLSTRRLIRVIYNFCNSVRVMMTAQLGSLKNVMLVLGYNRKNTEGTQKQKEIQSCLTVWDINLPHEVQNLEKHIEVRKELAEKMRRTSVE
Chain of TLK2 (Q86UE8 whole entry): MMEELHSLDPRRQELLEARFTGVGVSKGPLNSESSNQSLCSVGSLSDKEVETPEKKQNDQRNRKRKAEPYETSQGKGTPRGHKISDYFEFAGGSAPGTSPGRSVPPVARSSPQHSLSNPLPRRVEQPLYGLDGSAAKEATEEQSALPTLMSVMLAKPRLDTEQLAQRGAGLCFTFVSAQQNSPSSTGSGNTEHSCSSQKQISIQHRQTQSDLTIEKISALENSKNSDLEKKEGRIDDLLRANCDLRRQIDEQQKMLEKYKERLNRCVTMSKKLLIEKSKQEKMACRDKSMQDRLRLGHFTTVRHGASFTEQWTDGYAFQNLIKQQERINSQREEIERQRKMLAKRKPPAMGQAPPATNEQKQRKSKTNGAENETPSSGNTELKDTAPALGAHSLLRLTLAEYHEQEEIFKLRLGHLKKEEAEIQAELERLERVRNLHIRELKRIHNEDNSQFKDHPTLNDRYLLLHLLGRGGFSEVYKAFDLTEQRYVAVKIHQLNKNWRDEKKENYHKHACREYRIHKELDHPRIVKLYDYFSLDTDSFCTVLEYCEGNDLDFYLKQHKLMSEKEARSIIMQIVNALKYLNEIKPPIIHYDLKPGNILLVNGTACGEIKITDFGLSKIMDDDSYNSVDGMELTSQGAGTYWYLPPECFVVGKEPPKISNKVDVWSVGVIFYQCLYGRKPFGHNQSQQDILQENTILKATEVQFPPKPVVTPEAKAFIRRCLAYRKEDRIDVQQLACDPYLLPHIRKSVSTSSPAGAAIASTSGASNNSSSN
Chain of JNK2 (P45984 whole entry): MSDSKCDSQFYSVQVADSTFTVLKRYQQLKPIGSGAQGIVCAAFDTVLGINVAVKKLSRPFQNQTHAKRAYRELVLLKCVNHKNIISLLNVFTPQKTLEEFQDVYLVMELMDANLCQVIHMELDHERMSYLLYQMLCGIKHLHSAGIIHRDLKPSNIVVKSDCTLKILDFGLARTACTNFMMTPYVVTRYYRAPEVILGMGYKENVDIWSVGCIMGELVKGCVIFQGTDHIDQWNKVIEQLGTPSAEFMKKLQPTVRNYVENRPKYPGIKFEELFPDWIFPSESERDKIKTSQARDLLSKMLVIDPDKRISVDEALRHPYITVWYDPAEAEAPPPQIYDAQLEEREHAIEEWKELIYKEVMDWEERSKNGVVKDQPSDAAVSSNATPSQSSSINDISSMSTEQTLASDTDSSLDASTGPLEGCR
Chain of RSK2 (P51812 whole entry): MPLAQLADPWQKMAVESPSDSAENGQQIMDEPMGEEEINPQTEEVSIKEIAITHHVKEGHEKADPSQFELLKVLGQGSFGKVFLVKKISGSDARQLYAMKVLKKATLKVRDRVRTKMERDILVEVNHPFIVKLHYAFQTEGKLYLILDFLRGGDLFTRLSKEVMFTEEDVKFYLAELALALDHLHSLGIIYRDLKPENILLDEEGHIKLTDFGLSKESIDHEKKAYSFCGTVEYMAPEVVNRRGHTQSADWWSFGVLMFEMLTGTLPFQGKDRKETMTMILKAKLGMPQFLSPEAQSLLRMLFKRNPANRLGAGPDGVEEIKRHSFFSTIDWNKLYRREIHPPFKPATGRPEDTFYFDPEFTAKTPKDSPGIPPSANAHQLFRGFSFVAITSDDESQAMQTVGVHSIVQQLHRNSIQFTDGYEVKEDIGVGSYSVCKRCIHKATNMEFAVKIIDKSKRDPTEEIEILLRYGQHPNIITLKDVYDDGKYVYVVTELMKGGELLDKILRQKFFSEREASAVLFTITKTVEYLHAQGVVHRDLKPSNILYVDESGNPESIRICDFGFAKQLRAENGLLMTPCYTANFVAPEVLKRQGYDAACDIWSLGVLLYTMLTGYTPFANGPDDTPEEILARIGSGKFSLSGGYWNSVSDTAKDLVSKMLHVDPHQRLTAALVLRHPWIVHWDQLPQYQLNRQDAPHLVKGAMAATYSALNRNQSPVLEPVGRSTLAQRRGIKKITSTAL

Regarding `COc1cc(-c2cncc(-c3ccc(N4C[C@@H](C)N(C)[C@@H](C)C4)cc3)c2C)cc(F)c1C(N)=O` [Compound 26c, 2-Fluoro-6-methoxy-4-(4-methyl-5-(4-((3R,5S)-3,4,5-trimethylpiperazin-1-yl)phenyl)pyridin-3-yl)benzamide], the % enzyme activity at 1 μM in the assay on MNK2 was 70.8% and 68.3%. The “% enzyme activity” value came out at 77.27% on LRRK2, 93.94% on MKK4, 101.06% on RSK2 and 89.84% at TLK2. Also, the remaining activity at 1 µM came to 117% at CHK1, 94.7% at JNK2, 93.2% on NEK5 and 99.1% on PKCiota.

As to `COc1cc(-c2cncc(-c3ccc(N4CCN(C)CC4)cc3)c2C)cc(F)c1C(N)=O` [Compound 26a, 2-Fluoro-6-methoxy-4-(4-methyl-5-(4-(4-methylpiperazin-1-yl)phenyl)pyridin-3-yl)benzamide], the % enzyme activity at 1 μM with MNK2 turned out to be 48.2%. Moreover, the “% enzyme activity” value turned out to be 59.73% on LRRK2, 98.66% on MKK4, 99.92% on RSK2 and 95.61% at TLK2. Besides, the remaining activity at 1 µM on CHK1 came out at 98.2%; on JNK2 it was 93.4%; on NEK5, 98.7%; at PKCiota, 107%.
